Laboratory results reported in US20210355104A1, “ADENOSINE RECEPTOR BINDING COMPOUNDS” (Nikang Therapeuticsm Inc., priority 2018, published 2021).
Values joined by “and” are separate entries in the source; they are usually repeats but may differ in a detail not shown here. Identical values can stand only once.

Columns and labels:
Adenosine A2A receptor [1] = target: T1, Adenosine A2A receptor (Homo sapiens, UniProt P29274); assay: Adenosine A2A receptor competitive binding assay (Tag-lite HTRF); conditions: Tag-lite adenosine A2A receptor ligand binding, 2 h room temperature; values separated by / are repeat determinations
T1 sequence (P29274 whole entry): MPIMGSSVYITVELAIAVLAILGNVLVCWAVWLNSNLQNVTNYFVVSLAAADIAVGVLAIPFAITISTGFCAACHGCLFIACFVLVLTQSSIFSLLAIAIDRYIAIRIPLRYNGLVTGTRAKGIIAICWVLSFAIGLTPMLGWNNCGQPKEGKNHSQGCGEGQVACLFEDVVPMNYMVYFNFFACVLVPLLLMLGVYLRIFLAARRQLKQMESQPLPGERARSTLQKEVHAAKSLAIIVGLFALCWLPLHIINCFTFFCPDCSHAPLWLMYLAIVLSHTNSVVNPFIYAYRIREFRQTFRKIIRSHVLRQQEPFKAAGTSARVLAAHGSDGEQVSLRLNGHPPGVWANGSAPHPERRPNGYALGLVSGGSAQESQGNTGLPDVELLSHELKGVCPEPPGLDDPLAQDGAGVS
Method in brief: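 Tag-lite HTRF competition: donor-labelled cells expressing human A2A were mixed with serially diluted compounds (DMSO 0.6% in dilutions) and red fluorescent A2A antagonist ligand (60 nM stock). Incubated 2 h at room temperature before HTRF readout.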

Adenosine A2A receptor [2] = target: T1, Adenosine A2A receptor; assay: cAMP assay in 293A cells stably expressing the adenosine A2A receptor (CGS21680 stimulation, HTRF); type: cell-based; set-up: expressed in transfected cells; host or cells: 293A cells (Invitrogen, Cat# R705-07) infected with A2A-expressing lentivirus (custom packaged by Biosettia), puromycin selected; conditions: 293A-A2AR cells, 0.1% BSA, values separated by / are repeat determinations
[3] = 8 nM CGS, read-out: cAMP (nM) 0.1% BSA, 8 nM CGS
[4] = 1 uM CGS, read-out: cAMP (nM) 0.1% BSA, 1 uM CGS

IC50 (Adenosine A2A receptor [1]) | IC50 (Adenosine A2A receptor [2]; [3]) | IC50 (Adenosine A2A receptor [2]; [4]) | Structure (SMILES)
4.5 nM | 4.2 nM |  | CNC(=O)OCCOc1nc(N)nc(-c2ccccc2)c1-c1cc(C)nc(C(F)(F)F)c1 [Example 144, 2-((2-amino-5-(2-methyl-6-(trifluoromethyl)pyridin-4-yl)-6-phenylpyrimidin-4-yl)oxy)ethyl methylcarbamate]
4 nM | 5.6 nM |  | CCN(CCOc1nc(N)nc(-c2ccc(F)cc2)c1-c1cc(C)nc(C(F)F)c1)c1ncccn1 [Example 146, 5-(2-(difluoromethyl)-6-methylpyridin-4-yl)-4-(2-(ethyl(pyrimidin-2-yl)amino)ethoxy)-6-(4-fluorophenyl)pyrimidin-2-amine]
13 nM |  | 5460 nM | Cc1cc(-c2c(OCCN(C)c3nccc(N)n3)nc(N)nc2-c2ccc(F)cc2)cc(C(F)F)n1 [Example 147, N^2-(2-((2-amino-5-(2-(difluoromethyl)-6-methylpyridin-4-yl)-6-(4-fluorophenyl)pyrimidin-4-yl)oxy)ethyl)-N^2-methylpyrimidine-2,4-diamine]
2.7 nM and 3.2 nM |  | 98 nM | Cc1cc(-c2c(OCCN(C)c3cccnn3)nc(N)nc2-c2ccc(F)cc2)cc(C(F)F)n1 [Example 150, N-(2-((2-amino-5-(2-(difluoromethyl)-6-methylpyridin-4-yl)-6-(4-fluorophenyl)pyrimidin-4-yl)oxy)ethyl)-N-methylpyridazin-3-amine]
5.1 nM |  | 351 nM | Cc1cc(-c2c(OCCN(C)c3cnccn3)nc(N)nc2-c2ccc(F)cc2)cc(C(F)F)n1 [Example 152, 5-(2-(difluoromethyl)-6-methylpyridin-4-yl)-4-(4-fluorophenyl)-6-(2-(methyl(pyrazin-2-yl)amino)ethoxy)pyrimidin-2-amine]
8.9 nM | 4.1 nM |  | Cc1cc(-c2c(OCCN(CCO)c3ccccn3)nc(N)nc2-c2ccc(F)cc2)cc(C(F)F)n1 [Example 153, 2-((2-((2-amino-5-(2-(difluoromethyl)-6-methylpyridin-4-yl)-6-(4-fluorophenyl)pyrimidin-4-yl)oxy)ethyl)(pyridin-2-yl)amino)ethan-1-ol]
84 nM | 57 nM |  | Cc1cc(-c2c(OCCN(C)c3ccc(C#N)cn3)nc(N)nc2-c2ccc(F)cc2)cc(C(F)F)n1 [Example 156, 6-((2-((2-amino-5-(2-(difluoromethyl)-6-methylpyridin-4-yl)-6-(4-fluorophenyl)pyrimidin-4-yl)oxy)ethyl)(methyl)amino)nicotinonitrile]
79 nM | 52 nM |  | Cc1cc(-c2c(OCCN(C)c3ccc(S(C)(=O)=O)cn3)nc(N)nc2-c2ccc(F)cc2)cc(C(F)F)n1 [Example 157, 5-(2-(difluoromethyl)-6-methylpyridin-4-yl)-4-(4-fluorophenyl)-6-(2-(methyl(5-(methylsulfonyl)pyridin-2-yl)amino)ethoxy)pyrimidin-2-amine]
627 nM | 231 nM |  | COC(=O)NCC1(COc2nc(N)nc(-c3ccc(F)cc3)c2-c2cc(C)nc(C(F)F)c2)CCOCC1 [Example 158, methyl ((4-(((2-amino-5-(2-(difluoromethyl)-6-methylpyridin-4-yl)-6-(4-fluorophenyl)pyrimidin-4-yl)oxy)methyl)tetrahydro-2H-pyran-4-yl)methyl)carbamate]
1.1 nM (2×) and 2.9 nM | 1.1 nM and 1.6 nM | 33 nM | Cc1cc(-c2c(OCc3nccn3C3CC3)nc(N)nc2-c2ccc(F)cc2)cc(C(F)F)n1 [Example 170, 4-((1-cyclopropyl-1H-imidazol-2-yl)methoxy)-5-(2-(difluoromethyl)-6-methylpyridin-4-yl)-6-(4-fluorophenyl)pyrimidin-2-amine]
15 nM | 19 nM |  | Cc1cc(-c2c(OCc3nccn3CC(C)(C)O)nc(N)nc2-c2ccc(F)cc2)cc(C(F)F)n1 [Example 175, 1-(2-(((2-amino-5-(2-(difluoromethyl)-6-methylpyridin-4-yl)-6-(4-fluorophenyl)pyrimidin-4-yl)oxy)methyl)-1H-imidazol-1-yl)-2-methylpropan-2-ol]
0.2 nM | 2.6 nM and 2.9 nM | 271 nM | Cc1cc(-c2c(OCc3nccn3CC3CC3)nc(N)nc2-c2ccc(F)cc2)cc(C(F)F)n1 [Example 177, 4-((1-(cyclopropylmethyl)-1H-imidazol-2-yl)methoxy)-5-(2-(difluoromethyl)-6-methylpyridin-4-yl)-6-(4-fluorophenyl)pyrimidin-2-amine]
1.4 nM and 3.2 nM | 1.5 nM |  | Cc1cc(-c2c(OCc3nncn3C(C)C)nc(N)nc2-c2ccc(F)cc2)cc(C(F)F)n1 [Example 178, 5-(2-(difluoromethyl)-6-methylpyridin-4-yl)-4-(4-fluorophenyl)-6-((4-isopropyl-4H-1,2,4-triazol-3-yl)methoxy)pyrimidin-2-amine]
0.7 nM and 1 nM | 2.9 nM | 16 nM and 57 nM | Cc1cc(-c2c(OCc3ncnn3C(C)C)nc(N)nc2-c2ccc(F)cc2)cc(C(F)F)n1 [Example 179, 5-(2-(difluoromethyl)-6-methylpyridin-4-yl)-4-(4-fluorophenyl)-6-((1-isopropyl-1H-1,2,4-triazol-5-yl)methoxy)pyrimidin-2-amine]

Continued, compound first:

Structure (SMILES) | IC50 (Adenosine A2A receptor [1]) | IC50 (Adenosine A2A receptor [2]; [3]) | IC50 (Adenosine A2A receptor [2]; [4])
CNC(=O)OCCOc1nc(N)nc(-c2ccc(F)cc2)c1-c1cc(C)nc(C(F)F)c1 [Example 143, 2-((2-amino-5-(2-(difluoromethyl)-6-methylpyridin-4-yl)-6-(4-fluorophenyl)pyrimidin-4-yl)oxy)ethyl methylcarbamate] | 11.7 nM | 8.1 nM | 
Cc1cc(-c2c(OCCN(C)c3cc(OCCO)ccn3)nc(N)nc2-c2ccc(F)cc2)cc(C(F)F)n1 [Example 155, 2-((2-((2-((2-amino-5-(2-(difluoromethyl)-6-methylpyridin-4-yl)-6-(4-fluorophenyl)pyrimidin-4-yl)oxy)ethyl)(methyl)amino)pyridin-4-yl)oxy)ethan-1-ol] | 24 nM | 5.4 nM | 
Cc1cc(-c2c(OCC(=O)NCC3CCOCC3)nc(N)nc2-c2ccc(F)cc2)cc(C(F)F)n1 [Example 160, 2-((2-amino-5-(2-(difluoromethyl)-6-methylpyridin-4-yl)-6-(4-fluorophenyl)pyrimidin-4-yl)oxy)-N-((tetrahydro-2H-pyran-4-yl)methyl)acetamide] | 336 nM | 184 nM | 
Cc1cc(-c2c(OCC(=O)NCC(F)(F)F)nc(N)nc2-c2ccc(F)cc2)cc(C(F)F)n1 [Example 161, 2-((2-amino-5-(2-(difluoromethyl)-6-methylpyridin-4-yl)-6-(4-fluorophenyl)pyrimidin-4-yl)oxy)-N-(2,2,2-trifluoroethyl)acetamide] | 44 nM | 14 nM | 
Cc1cc(-c2c(OCC(=O)NCC(C)(F)F)nc(N)nc2-c2ccc(F)cc2)cc(C(F)F)n1 [Example 162, 2-((2-amino-5-(2-(difluoromethyl)-6-methylpyridin-4-yl)-6-(4-fluorophenyl)pyrimidin-4-yl)oxy)-N-(2,2-difluoropropyl)acetamide] | 21.1 nM | 8.4 nM | 
Cc1cc(-c2c(OCCCS(C)(=N)=O)nc(N)nc2-c2ccc(F)cc2)cc(C(F)F)n1 (stereo not shown) [Example 169, (3-((2-amino-5-(2-(difluoromethyl)-6-methylpyridin-4-yl)-6-(4-fluorophenyl)pyrimidin-4-yl)oxy)propyl)(imino)(methyl)-λ^6-sulfanone] | 9.7 nM | 7.1 nM | 
Cc1cc(-c2c(OCc3nccn3C3COC3)nc(N)nc2-c2ccc(F)cc2)cc(C(F)F)n1 [Example 171, 5-(2-(difluoromethyl)-6-methylpyridin-4-yl)-4-(4-fluorophenyl)-6-((1-(oxetan-3-yl)-1H-imidazol-2-yl)methoxy)pyrimidin-2-amine] | 3.6 nM | 4.1 nM | 
Cc1cc(-c2c(OCc3nccn3CC(C)C)nc(N)nc2-c2ccc(F)cc2)cc(C(F)F)n1 [Example 176, 5-(2-(difluoromethyl)-6-methylpyridin-4-yl)-4-(4-fluorophenyl)-6-((1-isobutyl-1H-imidazol-2-yl)methoxy)pyrimidin-2-amine] | 3.6 nM | 7.9 nM | 
Cc1cc(-c2c(OCc3cnnn3C(C)C)nc(N)nc2-c2ccc(F)cc2)cc(C(F)F)n1 [Example 180, 5-(2-(difluoromethyl)-6-methylpyridin-4-yl)-4-(4-fluorophenyl)-6-((1-isopropyl-1H-1,2,3-triazol-5-yl)methoxy)pyrimidin-2-amine] | 15 nM | 2.5 nM | 
Cc1cc(-c2c(OCc3n[nH]cc3C(C)C)nc(N)nc2-c2ccc(F)cc2)cc(C(F)F)n1 [Example 183, 5-(2-(difluoromethyl)-6-methylpyridin-4-yl)-4-(4-fluorophenyl)-6-((4-isopropyl-1H-pyrazol-3-yl)methoxy)pyrimidin-2-amine] | 46 nM | 12 nM | 
Cc1cc(-c2c(OCc3nn(C)cc3C(C)C)nc(N)nc2-c2ccc(F)cc2)cc(C(F)F)n1 [Example 184, 5-(2-(difluoromethyl)-6-methylpyridin-4-yl)-4-(4-fluorophenyl)-6-((4-isopropyl-1-methyl-1H-pyrazol-3-yl)methoxy)pyrimidin-2-amine] | 33 nM | 8.8 nM | 
Cc1cc(-c2c(OCc3nnn(C(C)C)n3)nc(N)nc2-c2ccc(F)cc2)cc(C(F)F)n1 [Example 185, 5-(2-(difluoromethyl)-6-methylpyridin-4-yl)-4-(4-fluorophenyl)-6-((2-isopropyl-2H-tetrazol-5-yl)methoxy)pyrimidin-2-amine] | 7.1 nM |  | 6 nM and 25 nM
